Test results published in US8945540B2, “Compositions for enhancing the antibacterial activity of myeloperoxidase and methods of use thereof” (Exoxemis, Inc., priority 2008, dated 2015).
Like-named read-outs stand apart in the source and are kept apart here.

Key:
Staphylococcus aureus [1] = experiment: Microbicidal activity of the myeloperoxidase system (p-MPO, glucose oxidase, glucose) with amino acids in the presence of blood, CFU plate counts; synergy determination from these CFU; format: cell-based; settings: for Average Viability CFU/ml 50 min / Log Reduction 50 min: MPO 4.7 U/ml, GO 4.2 U/ml; for Predicted vs Actual: actual CFU as % of predicted value; for Predicted Average of Amino Acids: average of CFU of the individual D- and L-enantiomers; for Actual CFU: racemic mixture, standard conditions of Example 5
Procedure: Bacterial suspensions, specifically Staphylococcus aureus in this example, were prepared by the shake flask method to achieve late log to early stationary phase growth. Bacteria were grown 24 hours in trypticase soy broth (TSB) at 35° C. The cultures were centrifuged at 4,000 rpm for 10 minutes and the supernatants removed. The pellet was collected and washed twice with sterile 0.9% normal saline (NS). The washed microorganisms were suspended and diluted with normal saline to a 3 McFarland standard, i.e., approximately 10^9 bacteria colony forming units (CFU) per mL. Actual colony counts are confirmed by serial dilutions (10^−1 to 10^−5 or 10^−6) plated on TSA and incubated overnight at 35° C. To obtain an approximate final working target inoculum of 10^7 CFU/mL, 15 microliters of organisms per mL of final reaction mixture are used.
Glucose oxidase (GO) from Aspergillus Niger was purchased from Biozyme, Inc., UK, Cat #GO3A, 270 U/mg). Porcine Myeloperoxidase (p-MPO) (Exoxemis, Inc., Little Rock, Ark. U.S.A., 375 U/mg). Sterile stock solutions of D-glucose and sodium chloride were prepared and used at a final concentration of 150 mM each. L-Lysine hydrochloride (Spectrum Chemical Cat #L1142) was prepared as a 100 mM stock solution. Catalase (Sigma, Cat #C-40) was prepared as a 1% stock solution in sterile 0.9% normal saline. Blood was collected by venipuncture and used as whole blood within the same day.
Staphylococcus aureus were used to give a final target concentration of 2-3×10^7 CFU (7.4 log 10) per mL and venous whole blood was used to give a final concentration of 3%. Glucose was added to the reaction mixtures to a final concentration of 150 mM, which initiated the microbicidal reaction. The final volume of the reaction mixtures was 1 mL. The reactions were allowed to run from 30 minutes to 2 hours, as needed, at room temperature or at 37° C. in a dry bath. At the specified time points the reaction mixtures were treated with 100 microliters of a catalase solution, containing a minimum of 100 units/μL, to consume remaining peroxide and terminate the oxidative killing. Serial dilution plate counts were performed from the contents of each vial in sterile saline and inoculated onto trypticase soy agar (TSA) for quantitative culture. Plates were then incubated at 37° C. and counts taken at 24 hours. […] The results are shown in Table 1, as the average of 2 replicates.
The amino acids alone, in the absence of MPO were tested to rule out their microbicidal activity. The results are shown in Table 2 to Table 6, as the average of 2 replicates.
The amino acid analogues alone, in the absence of MPO, were tested to rule out their microbicidal activity. […]
The effect of two-way combinations of individual amino acids with L-isoleucine, as potential enhancing agents, for MPO microbicidal action in the presence of blood, was therefore examined by following the procedure of Example 5.
The Actual CFU observed for the pair is then divided by the Predicted CFU and multiplied by 100 to calculate the % of Predicted value. This value is then to be compared to the threshold value, discussed in the next section, to determine whether the pair are synergistic, antagonistic, or additive.
Calculation of appropriate threshold values for determination of synergism and antagonism was based upon the variability of replicated CFU survivor measures.

Staphylococcus aureus [2] = experiment: Control: microbicidal activity of the amino acid or analogue alone (no glucose, MPO, glucose oxidase) in the presence of blood; format: cell-based; settings: for log reduction at 5000 µM: Staphylococcus aureus, 1 h, read-out: Log Reduction 60 min
Source text: As a control to determine the microbicidal activity of the amino acids alone, the foregoing procedure was followed without replication, except in the absence of glucose, MPO, and glucose oxidase.

[3] = Table 7, amino acid analogue 5 mM, MPO 38 U/ml, GO 33.3 U/ml, blood
[4] = amino acid analogue alone 5 mM, MPO 0, GO 0, no glucose, blood
[5] = Table 19, amino acid (racemic, L- or D-form) 2.5 mM, 50 min
[6] = Table 11, single amino acid 2.5 mM, in the presence of blood, 50 min
[7] = Table 14, single amino acid 2.5 mM, in the presence of blood, 50 min
[8] = MPO 100 μg/mL, AA 20 mM, 30 min
[9] = MPO 100 μg/mL, AA 20 mM, 60 min
[10] = single amino acid 2.5 mM, blood
[11] = Table 3, amino acid 5 mM (none: 0 mM), MPO 38 U/ml, GO 33.3 U/ml, blood
[12] = Table 13, single amino acid 2.5 mM, in the presence of blood, 50 min
[13] = amino acid alone 5 mM, MPO 0, GO 0, no glucose, blood, without replication
[14] = Table 5, amino acid 5 mM (none: 0 mM), MPO 38 U/ml, GO 33.3 U/ml, blood
[15] = Table 10, single amino acid 2.5 mM, in the presence of blood, 50 min
[16] = Table 4, amino acid 5 mM (none: 0 mM), MPO 38 U/ml, GO 33.3 U/ml, blood

## Cl.NCC(N)C(=O)O (racemic) [DL-2,3-Diaminopropionic acid monohydrochloride]
Staphylococcus aureus [1]; [3]
  Average Viability CFU/ml 60 min: 0 CFU/ml
  Log Reduction 60 min: 7.4
Staphylococcus aureus [2]; [4]
  log reduction at 5000 µM: 0
  Average Viability CFU/ml 60 min: 20600000 CFU/ml

## CC(CN)C(=O)O (racemic) [DL-3-Aminoisobutyric acid]
Staphylococcus aureus [1]; [3]
  Average Viability CFU/ml 60 min: 0 CFU/ml
  Log Reduction 60 min: 7.4
Staphylococcus aureus [2]; [4]
  Average Viability CFU/ml 60 min: 24200000 CFU/ml
  Log Reduction 60 min: 0.0

## CC(C)CC(N)CC(=O)O (racemic) [DL-Beta-homoleucine]
Staphylococcus aureus [1]; [3]
  Average Viability CFU/ml 60 min: 0 CFU/ml
  Log Reduction 60 min: 7.4
Staphylococcus aureus [2]; [4]
  log reduction at 5000 µM: 0
  Average Viability CFU/ml 60 min: 20500000 CFU/ml

## CC[C@H](C)[C@H](N)C(=O)O (racemic) [d,l-Isoleucine]
Staphylococcus aureus [1]; [5]
  Average Viability CFU/ml 50 min: 64000 CFU/ml
  Log Reduction 50 min: 2.7
Staphylococcus aureus [1]
  Predicted vs Actual: 39%
  Predicted Average of Amino Acids: 162667 CFU
  Actual CFU: 64000 CFU

## CC(C)CC(N)C(=O)O (racemic) [d,l-Leucine]
Staphylococcus aureus [1]; [5]
  Average Viability CFU/ml 50 min: 650000 CFU/ml
  Log Reduction 50 min: 1.6
Staphylococcus aureus [1]
  Predicted vs Actual: 310%
  Predicted Average of Amino Acids: 209500 CFU
  Actual CFU: 650000 CFU

## NC(Cc1ccccc1)C(=O)O (racemic) [d,l-Phenylalanine]
Staphylococcus aureus [1]; [5]
  Average Viability CFU/ml 50 min: 900000 CFU/ml
  Log Reduction 50 min: 1.4
Staphylococcus aureus [1]
  Predicted vs Actual: 9%
  Predicted Average of Amino Acids: 9950000 CFU
  Actual CFU: 900000 CFU
Staphylococcus aureus [1]; from % of predicted value
  synergistic, antagonistic or additive: synergistic (synergistic combinations with responses less than 25% of the predicted value)

## CC(C)C(N)C(=O)O (racemic) [d,l-Valine]
Staphylococcus aureus [1]; [5]
  Average Viability CFU/ml 50 min: 685000 CFU/ml
  Log Reduction 50 min: 1.5
Staphylococcus aureus [1]
  Predicted vs Actual: 187%
  Predicted Average of Amino Acids: 367250 CFU
  Actual CFU: 685000 CFU

## CC(N)CC(=O)O (stereo not shown) [3-Aminobutanoic acid]
Staphylococcus aureus [1]; [3]
  Average Viability CFU/ml 60 min: 9 CFU/ml
  Log Reduction 60 min: 6.4
Staphylococcus aureus [2]; [4]
  log reduction at 5000 µM: 0
  Average Viability CFU/ml 60 min: 21300000 CFU/ml

## CCOC(=O)CCN.Cl [Beta-Alanine ethyl ester hydrochloride]
Staphylococcus aureus [1]; [3]
  Average Viability CFU/ml 60 min: 1195000 CFU/ml
  Log Reduction 60 min: 1.3
Staphylococcus aureus [2]
  log reduction at 5000 µM: 0
Staphylococcus aureus [2]; [4]
  Average Viability CFU/ml 60 min: 23100000 CFU/ml

## COC(=O)[C@@H](C)N [D-Ala methyl ester]
Staphylococcus aureus [1]; [6]
  Average Viability CFU/ml 50 min: 9500000 CFU/ml
  Log Reduction 50 min: 0.5
Staphylococcus aureus [1]; [7]
  Average Viability CFU/ml 50 min: 8850000 CFU/ml
  Log Reduction 50 min: 0.5

## COC(=O)[C@@H](C)N [D-Alanine methyl ester]
Staphylococcus aureus [1]; MPO 25 μg/mL, AA 5 mM, 30 min
  Log 10 (CFU + 1) Survivors: 0.0
Staphylococcus aureus [1]; MPO 25 μg/mL, AA 5 mM, 60 min
  Log 10 (CFU + 1) Survivors: 0.0
Staphylococcus aureus [1]; MPO 25 μg/mL, AA […], 30 min
  Log 10 (CFU + 1) Survivors: 0.0
Staphylococcus aureus [1]; MPO 25 μg/mL, AA […], 60 min
  Log 10 (CFU + 1) Survivors: 0.0
Staphylococcus aureus [1]; MPO 100 μg/mL, AA 5 mM, 30 min
  Log 10 (CFU + 1) Survivors: 0.0
Staphylococcus aureus [1]; MPO 100 μg/mL, AA 5 mM, 60 min
  Log 10 (CFU + 1) Survivors: 0.0
Staphylococcus aureus [1]; [8]
  Log 10 (CFU + 1) Survivors: 0.0
Staphylococcus aureus [1]; [9]
  Log 10 (CFU + 1) Survivors: 0.0
Staphylococcus aureus [1]; [10]
  Average Viability CFU/ml 50 min: 5450000 CFU/ml
  Log Reduction 50 min: 0.6

## C[C@@H](N)C(=O)O [D-Alanine]
Staphylococcus aureus [1]; MPO 25 μg/mL, AA 5 mM, 30 min
  Log 10 (CFU + 1) Survivors: 7.3
Staphylococcus aureus [1]; MPO 25 μg/mL, AA 5 mM, 60 min
  Log 10 (CFU + 1) Survivors: 3.7
Staphylococcus aureus [1]; MPO 25 μg/mL, AA […], 30 min
  Log 10 (CFU + 1) Survivors: 7.3
Staphylococcus aureus [1]; MPO 25 μg/mL, AA […], 60 min
  Log 10 (CFU + 1) Survivors: 6.7
Staphylococcus aureus [1]; MPO 100 μg/mL, AA 5 mM, 30 min
  Log 10 (CFU + 1) Survivors: 6.8
Staphylococcus aureus [1]; MPO 100 μg/mL, AA 5 mM, 60 min
  Log 10 (CFU + 1) Survivors: 0.6
Staphylococcus aureus [1]; [8]
  Log 10 (CFU + 1) Survivors: 7.3
Staphylococcus aureus [1]; [9]
  Log 10 (CFU + 1) Survivors: 0.0
Staphylococcus aureus [1]; [11]
  Average Viability CFU/ml 60 min: 0 CFU/ml
  Log 10 (CFU + 1) Survivors 60 min: 0.0
  Log Reduction 60 min: 7.3
Staphylococcus aureus [1]; [12]
  Average Viability CFU/ml 50 min: 1900000 CFU/ml
  Log Reduction 50 min: 1.1
Staphylococcus aureus [2]; [13]
  log reduction at 5000 µM: 0
  Average Viability CFU/ml 60 min: 19600000 CFU/ml

## N=C(N)NCCC[C@@H](N)C(=O)O [D-Arginine]
Staphylococcus aureus [1]; MPO 25 μg/mL, AA 5 mM, 30 min
  Log 10 (CFU + 1) Survivors: 6.9
Staphylococcus aureus [1]; MPO 25 μg/mL, AA 5 mM, 60 min
  Log 10 (CFU + 1) Survivors: 6.7
Staphylococcus aureus [1]; MPO 25 μg/mL, AA […], 30 min
  Log 10 (CFU + 1) Survivors: 7.0
Staphylococcus aureus [1]; MPO 25 μg/mL, AA […], 60 min
  Log 10 (CFU + 1) Survivors: 5.9
Staphylococcus aureus [1]; MPO 100 μg/mL, AA 5 mM, 30 min
  Log 10 (CFU + 1) Survivors: 6.9
Staphylococcus aureus [1]; MPO 100 μg/mL, AA 5 mM, 60 min
  Log 10 (CFU + 1) Survivors: 0.0
Staphylococcus aureus [1]; [8]
  Log 10 (CFU + 1) Survivors: 7.0
Staphylococcus aureus [1]; [9]
  Log 10 (CFU + 1) Survivors: 6.8
Staphylococcus aureus [1]; [14]
  Average Viability CFU/ml 60 min: 0 CFU/ml
  Log Reduction 60 min: 7.4
Staphylococcus aureus [1]; [15]
  Average Viability CFU/ml 50 min: 14200000 CFU/ml
  Log Reduction 50 min: 0.2
Staphylococcus aureus [1]; [6]
  Average Viability CFU/ml 50 min: 14650000 CFU/ml
  Log Reduction 50 min: 0.3
Staphylococcus aureus [1]; [7]
  Average Viability CFU/ml 50 min: 15000000 CFU/ml
  Log Reduction 50 min: 0.3
Staphylococcus aureus [1]; amino acid 5 mM, MPO 38 U/ml, GO 33.3 U/ml, blood
  enhancement of MPO microbicidal activity (in words): highly active
Staphylococcus aureus [2]
  log reduction at 5000 µM: 0.1
Staphylococcus aureus [2]; [13]
  Average Viability CFU/ml 60 min: 21500000 CFU/ml

## N[C@H](CC(=O)O)C(=O)O [D-Aspartic acid]
Staphylococcus aureus [1]; [14]
  Average Viability CFU/ml 60 min: 570000 CFU/ml
  Log Reduction 60 min: 1.6
Staphylococcus aureus [2]; [13]
  log reduction at 5000 µM: 0.1
  Average Viability CFU/ml 60 min: 20900000 CFU/ml

## N[C@H](CCC(=O)O)C(=O)O [D-Glutamic acid]
Staphylococcus aureus [1]; [16]
  Average Viability CFU/ml 60 min: 955000 CFU/ml
  Log Reduction 60 min: 1.4
Staphylococcus aureus [2]
  log reduction at 5000 µM: 0
Staphylococcus aureus [2]; [13]
  Average Viability CFU/ml 60 min: 26200000 CFU/ml
